In US5726167A, “Inhibition of phosphatidylinositol 3-kinase with viridin, demethoxyviridin, viridiol, demethoxyviridiol, virone, wortmannolone, and analogs thereof” (Eli Lilly and Company, priority 1997, dated 1998):

Molecular target: bovine brain purified PI 3-kinase
Experiment: Assay of purified PI 3-kinase activity
Assay type: biochemical
Settings: purified bovine brain PI 3-kinase, phosphatidylinositol substrate, 20 μM ATP
Experimental: In another, preferred, method, PI 3-kinase was prepared from bovine brain. Two bovine brains (wet weight about 900 g) were obtained from a local slaughterhouse within minutes of slaughter, packed on ice, and homogenized within one hour. Brains were trimmed of excess fat and blood vessels and then homogenized using a Tekmar Tissuemizer (Cincinnati, Ohio) at 4° C. in 20 mM of Tris(pH 8.3) containing 250 mM of sucrose, 6 mM of β-mercaptoethanol, 1 μg/ml of leupeptin, 1 μg/ml of pepstatin A, 0.4 mM of PMSF, and 1 mM of MgCl2.
Following centrifugation for 60 minutes at 10,000×g, the pH of the supernatant (about 1200 mL) was lowered to 5.75 using dropwise addition of 1M acetic acid at 4° C. After stirring for an additional 15 minutes at 4° C., the solution was centrifuged for 60 minutes at 13,500×g. The supernatant was discarded. Pellets were resuspended in Buffer A (20 mM of Tris, pH 8.3, containing 6 mM of β-mercaptoethanol, 0.1 mM of ethylene glycol-bis(β-aminoethyl ether) N,N,N',N'-tetraacetic acid (EGTA), 1 μg/mL of leupeptin, 1 μg/mL of pepstatin A, and 1 mM of MgCl2), and loaded onto a Fast Flow Q Sepharose column (300 ml) at a flow rate of 5 mL/minute at 4° C. […]
PI 3-kinase activity was measured as previously described by Matter, W. F., et al., Biochemical and Biophysical Research Communications, 186: 624-631 (1992). […]

Structure (SMILES): COC1C(=O)c2coc3c2[C@@](C)(c2ccc4c(c2C3=O)CCC4=O)[C@@H]1O (some centres unmarked) [viridin]
- one-half maximal inhibition, IC50: 0.85 ng/mL
- IC50 (molar value in brackets, read-out: one-half maximal inhibition, IC50): 2.4 nM
